pIC50: −log10 of the molar value. Structures can show the parent of a compound that is named as a salt. Where two headings read alike, the source gives them in different places.

The source of these data is patent US20090036448A1, “PYRIMIDINE DERIVATIVES AND METHODS OF TREATMENT RELATED TO THE USE THEREOF” (TAISHO PHARMECUTICAL CO., LTD., priority 2004, published 2009).

This test has as its target MCH receptor (Homo sapiens, UniProt Q99705). The test can be described thus: FLIPR/FDSS6000 functional assay: intracellular Ca2+ changes evoked by MCH. Particulars: antagonist activity, 50 nM of MCH. The test is classed as cell-based. The text has this:
Subsequently, a functional based assay was used to confirm the lead hits, referred to as FLIPR™ (the Fluorometric Imaging Plate Reader) and FDSS6000™ (Functional Drug Screening System). This assay utilized a non-endogenous, constitutively active version of the MCH receptor.
The FLIPR and FDSS assays are able to detect intracellular Ca^2+ concentration in cells, which can be utilized to assess receptor activation and determine whether a candidate compound is an, for example, antagonist, inverse agonist or agonist to a Gq-coupled receptor. The concentration of free Ca^2+ in the cytosol of any cell is extremely low, whereas its concentration in the extracellular fluid and endoplasmic reticulum (ER) is very high. Thus, there is a large gradient tending to drive Ca^2+ into the cytosol across both the plasma membrane and ER. The FLIPR™ and FDSS6000™ systems (Molecular Devices Corporation, HAMAMATSU Photonics K.K.) are designed to perform functional cell-based assays, such as the measurement of intracellular calcium for high-throughput screening. The measurement of fluorescent is associated with calcium release upon activation of the Gq-coupled receptors.
Fluorometric Imaging Plate Reader system was used to allow for rapid, kinetic measurements of intracellular fluorescence in 96 well microplates (or 384 well microplates). Simultaneous measurements of fluorescence in all wells can be made by FLIPR or FDSS6000™ every second with high sensitivity and precision. These systems are ideal for measuring cell-based functional assays such as monitoring the intracellular calcium fluxes that occur within seconds after activation of the Gq coupled receptor.
Briefly, the cells are seeded into 96 well at 5.5×10^4 cells/well with complete culture media (Dulbecco's Modified Eagle Medium with 10% fetal bovine serum, 2 mM L-glutamine, 1 mM sodium pyruvate and 0.5 mg/mL G418, pH 7.4) for the assay next day. On the day of assay, the media is removed and the cells are incubated with 100 μl of loading buffer (4 μM Fluo-4-AM in complete culture media containing 2.5 mM Probenicid, 0.5 mg/ml and 0.2% bovine serum albumin) in 5% CO2 incubator at 37° C. for 1 hr. The loading buffer is removed, and the cells are washed with wash buffer (Hank's Balanced Salt Solution containing 2.5 mM Probenicid, 20 mM HEPES, 0.5 mg/mL and 0.2% bovine serum albumin, pH 7.4). One hundred fifty μl of wash buffer containing various concentrations of test compound is added to the cells, and the cells are incubated in 5% CO2 incubator at 37° C. for 30 min. Fifty μl of wash buffer containing various concentration of MCH are added to each well, and transient changes in [Ca^2+]i evoked by MCH are monitored using the FLIPR or FDSS in 96 well plates at Ex. 488 nm and Em. 530 nm for 290 second. When antagonist activity of compound is tested, 50 nM of MCH is used.
Use of FLIPR™ and FDSS6000™ can be accomplished by following manufacturer's instruction (Molecular Device Corporation and HAMAMATSU Photonics K.K.).

Where [1] appears, read: class by percent of control at 10^−7 M or by IC50, read-out: class.

As for `Cc1nc(N[C@H]2CC[C@@H](CNC(=O)c3ccc(F)c(F)c3)CC2)cc(N(C)C)n1` [Example 29, N-[(cis-4-{[6-(Dimethylamino)-2-methylpyrimidin-4-yl]amino}cyclohexyl)methyl]-3,4-difluorobenzamide hydrochloride], the pIC50 under setting [1] is below 6.70.

As to `Cc1nc(N[C@H]2CC[C@@H](NC(=O)c3cncc(Br)c3)CC2)cc(N(C)C)n1` [Example 12, 5-Bromo-N-(cis-4-{[6-(dimethylamino)-2-methylpyrimidin-4-yl]amino}cyclohexyl)-nicotinamide dihydrochloride], under setting [1], the pIC50 is 6.70 to 7.30.

For the molecule “N^4-(cis-4-{[Bromo-2-(trifluoromethoxy)benzyl]amino}cyclohexyl)-N^2,N^2-dimethylpyrimidine-2,4-diamine dihydrochloride [Example 42]”, the pIC50 under setting [1] is below 6.70.

With `CCn1ccc2c(N[C@H]3CC[C@@H](NC(=O)c4ccc(F)c(Cl)c4)CC3)ncnc21` [Example 189, 3-Chloro-N-{cis-4-[(7-ethyl-7H-pyrrolo[2,3-d]pyrimidin-4-yl)amino]cyclohexyl}-4-fluorobenzamide hydrochloride], the pIC50 under setting [1] was below 6.70.

As to `Cc1nc(N[C@H]2CC[C@@H](NC(=O)c3ccc(F)c(Cl)c3)CC2)cc(N2CCCCC2)n1` [Example 37, 3-Chloro-4-fluoro-N-{cis-4-[(2-methyl-6-piperidin-1-ylpyrimidin-4-yl)amino]cyclohexyl}-benzamide hydrochloride], under setting [1], the pIC50 is below 6.70.

With `Cc1nc(NC[C@H]2CC[C@@H](NC(=O)c3ccc(F)c(F)c3)CC2)cc(N(C)C)n1` [Example 28, N-[cis-4-({[6-(Dimethylamino)-2-methylpyrimidin-4-yl]amino}methyl)cyclohexyl]-3,4-difluorobenzamide hydrochloride], the pIC50 under setting [1] was below 6.70.

For `Cc1nc(N[C@H]2CC[C@@H](NC(=S)Nc3ccc(F)c(Cl)c3)CC2)cc(N(C)C)n1` [Example 183, N-(3-Chloro-4-fluorophenyl)-N′-(cis-4-{[6-(dimethylamino)-2-methylpyrimidin-4-yl]amino}cyclohexyl)thiourea hydrochloride], under setting [1], the pIC50 was below 6.70.

For the molecule `Cc1nc(N[C@H]2CC[C@@H](NC(=O)c3ccc(F)c(Cl)c3)CC2)c(F)c(N(C)C)n1` [Example 181, 3-Chloro-N-(cis-4-{[6-(dimethylamino)-5-fluoro-2-methylpyrimidin-4-yl]amino}cyclohexyl)-4-fluorobenzamide hydrochloride], under setting [1], the pIC50 was below 6.70.

`Cc1cc(N[C@H]2CC[C@@H](NC(=O)c3ccc(F)c(Cl)c3)CC2)nc(N(C)C)n1` [Example 45, 3-Chloro-N-(cis-4-{([2-(dimethylamino)-6-methylpyrimidin-4-yl]amino}cyclohexyl)-4-fluorobenzamide hydrochloride]: the pIC50 under setting [1] is 6.70 to 7.30.

Turning to `Cc1nc(N[C@H]2CC[C@@H](C(=O)Oc3ccc(F)c(Cl)c3)CC2)cc(N(C)C)n1` [Example 194, 3-Chloro-4-fluorophenyl cis-4-{[6-(dimethylamino)-2-methylpyrimidin-4-yl]amino}-cyclohexanecarboxylate hydrochloride], the pIC50 under setting [1] is below 6.70.

`CCN(C)c1nccc(N[C@H]2CC[C@@H](NC(=O)c3ccc(F)c(F)c3)CC2)n1` [Example 35, N-[cis-4-({2-[Ethyl(methyl)amino]pyrimidine-4-yl}amino)cyclohexyl]-3,4-difluorobenzamide hydrochloride]: the pIC50 under setting [1] was below 6.70.

For `Cc1cc(N[C@H]2CC[C@@H](NC(=O)c3ccc(F)c(F)c3)CC2)nc(N(C)C)n1` [Example 43, N-(cis-4-{[2-(Dimethylamino)-6-methylpyrimidin-4-yl]amino}cyclohexyl)-3,4-difluorobenzamide hydrochloride], the pIC50 under setting [1] was 6.70 to 7.30.

Turning to `Cc1nc(N[C@H]2CC[C@@H](NC(=O)c3ccc(F)c(C(F)(F)F)c3)CC2)cc(N(C)C)n1` [Example 14, N-(cis-4-{[6-(Dimethylamino)-2-methylpyrimidin-4-yl]amino}cyclohexyl)-4-fluoro-3-(trifluoromethyl)benzamide hydrochloride], under setting [1], the pIC50 is above 7.30.

Take `CNc1cc(N[C@H]2CC[C@@H](NC(=O)c3cc(F)c(F)c(F)c3)CC2)nc(C)n1` [Example 169, 3,4,5-Trifluoro-N-(cis-4-{[2-methyl-6-(methylamino)pyrimidin-4-yl]amino}cyclohexyl)-benzamide hydrochloride]: the pIC50 under setting [1] was 6.70 to 7.30.

In the case of `COc1cc(N[C@H]2CC[C@@H](NC(=O)c3ccc(F)c(Cl)c3)CC2)nc(OC)n1` [Example 185, 3-Chloro-N-{cis-4-[(2,6-dimethoxypyrimidin-4-yl)amino]cyclohexyl}-4-fluorobenzamide hydrochloride], the pIC50 under setting [1] was below 6.70.

For the molecule `Cc1nc(N[C@H]2CC[C@@H](NC(=O)c3ccc(Cl)c(Cl)c3)CC2)cc(N(C)C)n1` [Example 8, 3,4-Dichloro-N-(cis-4-{[6-(dimethylamino)-2-methylpyrimidin-4-yl]amino}cyclohexyl)-benzamide hydrochloride], under setting [1], the pIC50 was above 7.30.

Turning to `Cc1nc(N[C@H]2CC[C@@H](NC(=O)c3cccc(Cl)c3)CC2)cc(N(C)C)n1` [Example 24, 3-Chloro-N-(cis-4-{[6-(dimethylamino)-2-methylpyrimidin-4-yl]amino}cyclohexyl)-benzamide hydrochloride], the pIC50 was 7.59 ([Ca2+]i by FLIPR or FDSS, read-out: IC50) and above 7.30 under setting [1].

On to `CNc1cc(N[C@H]2CC[C@@H](NC(=O)c3ccc(F)c(Cl)c3)CC2)nc(C)n1` [Example 31, 3-Chloro-4-fluoro-N-(cis-4-{[2-methyl-6-(methylamino)pyrimidin-4-yl]amino}cyclohexyl)-benzamide hydrochloride], for which the pIC50 under setting [1] was 6.70 to 7.30.

Take `Cc1nc(N[C@H]2CC[C@@H](NC(=O)c3cccc(C(F)(F)F)c3)CC2)cc(N(C)C)n1` [Example 17, N-(cis-4-{[6-(Dimethylamino)-2-methylpyrimidin-4-yl]amino}cyclohexyl)-3-(trifluoromethyl)-benzamide hydrochloride]: the pIC50 under setting [1] is above 7.30.

With `CN(C)c1cc(N[C@H]2CC[C@@H](NC(=O)c3ccc(F)c(F)c3)CC2)ncn1` [Example 2, N-(cis-4-{[6-(1-Dimethylamino)pyrimidin-4-yl]amino}cyclohexyl)-3,4-difluorobenzamide hydrochloride], the pIC50 under setting [1] is 6.70 to 7.30.

For `CN(C)c1nccc(N[C@H]2CC[C@@H](NC(=O)c3ccc(F)c(Cl)c3)CC2)n1` [Example 44, 3-Chloro-N-(cis-4-{[2-(dimethylamino)pyrimidin-4-yl]amino}cyclohexyl)-4-fluorobenzamide hydrochloride], the pIC50 under setting [1] is above 7.30.

Regarding `Cc1nc(N[C@H]2CC[C@@H](NC(=O)c3ccc(F)c(Cl)c3)CC2)cc(N(C)C)n1` [Example 6, 3-Chloro-N-(cis-4-{[6-(dimethylamino)-2-methylpyrimidin-4-yl]amino}cyclohexyl)-4-fluorobenzamide hydrochloride], under setting [1], the pIC50 was above 7.30.

Regarding `Cc1nc(N[C@H]2CC[C@@H](C(=O)Oc3ccc(F)c(F)c3)CC2)cc(N(C)C)n1` [Example 196, 3,4-Difluorophenyl cis-4-{[6-(dimethylamino)-2-methylpyrimidin-4-yl]amino}-cyclohexanecarboxylate hydrochloride], the pIC50 under setting [1] was below 6.70.

Regarding `CCNc1nccc(N[C@H]2CC[C@@H](NC(=O)c3ccc(F)c(F)c3)CC2)n1` [Example 34, N-(cis-4-{[2-(Ethylamino)pyrimidin-4-yl]amino}cyclohexyl)-3,4-difluorobenzamide hydrochloride], the pIC50 under setting [1] is below 6.70.

As for `Cc1nc(NC2CC2)cc(N[C@H]2CC[C@@H](NC(=O)c3cc(F)c(F)c(F)c3)CC2)n1` [Example 173, N-(cis-4-{[6-(Cyclopropylamino)-2-methylpyrimidin-4-yl]amino}cyclohexyl)-3,4,5-trifluorobenzamide hydrochloride], the pIC50 under setting [1] is below 6.70.

With `Cc1nc(N[C@H]2CC[C@@H](NC(=O)c3ccc(OC(F)(F)F)c(Cl)c3)CC2)cc(N(C)C)n1` [Example 16, 3-Chloro-N-(cis-4-{[6-(dimethylamino)-2-methylpyrimidin-4-yl]amino}cyclohexyl)-4-(trifluoromethoxy)benzamide hydrochloride], the pIC50 under setting [1] is 6.70 to 7.30.
